A compilation of properties of binary mixtures
Values joined by “and” are separate entries in the source; they are usually repeats but may differ in a detail not shown here. Identical values can stand only once.

Assay: xn = mol fraction of the nth substance listed

Work on `CCCCCC[n+]1ccn(C)c1.O=S(=O)([N-]S(=O)(=O)C(F)(F)F)C(F)(F)F` + Cc1ccccc1 yielded an electrical conductivity (298.15 K, 100 kPa, x1 = 0.0811) of 0.3 S/m, an electrical conductivity (298.15 K, 100 kPa, x1 = 0.1207) of 0.4 S/m and an electrical conductivity (298.15 K, 100 kPa, x1 = 0.1708) of 0.5 S/m. It also gave an electrical conductivity (298.15 K, 100 kPa, x1 = 0.236) of 0.6 S/m and an electrical conductivity (298.15 K, 100 kPa, x1 = 0.3246) of 0.6 S/m.

With `CC[n+]1ccn(C)c1.[Cl-]` + O the viscosity (373 K, 100 kPa, x1 = 0.8) was 20 mPa·s and the viscosity (373 K, 100 kPa, x1 = 0.9524) was 27 mPa·s.

`CCCC[NH3+].O=[N+]([O-])[O-]` + O showed a viscosity (303.15 K, 101 kPa, x2 = 0.3495) of 22.35 mPa·s, a viscosity (308.15 K, 101 kPa, x2 = 0.3495) of 19.25 mPa·s and a viscosity (313.15 K, 101 kPa, x2 = 0.3495) of 16.75 mPa·s.

With `CC[N+](CC)(CC)CC.[Cl-]` + OCC(O)CO the viscosity (318.15 K, 100 kPa, x1 = 0.333) was 94.1 mPa·s.

`Oc1cccnc1` + CCCC[n+]1ccn(C)c1.[Cl-] showed a viscosity (293.15 K, 100 kPa, x1 = 0.5) of 153.7 mPa·s.

Compound `[Cl][Al]([Cl])[Cl]` + CCCC[n+]1ccn(C)c1.[Cl-] has an electrical conductivity (306.15 K, 101 kPa, x2 = 0.5) of 1.29 S/m, an electrical conductivity (306.15 K, 101 kPa, x2 = 0.556) of 0.603 S/m and an electrical conductivity (306.15 K, 101 kPa, x2 = 0.588) of 0.373 S/m.

For `CCCCC[N+](CCCCC)(CCCCC)CCCCC.[Br-]` + CCCCCCCCCC(=O)O, the viscosity (318.15 K, 100 kPa, x1 = 0.333) was 178 mPa·s.

In the case of `CCCC[n+]1ccn(C)c1.[Cl-]` + OCCO, the electrical conductivity (303.15 K, 100 kPa, x1 = 0.333) is reported as 0.966 S/m and the electrical conductivity (303.15 K, 100 kPa, x1 = 0.5) is reported as 1.06 S/m.

In the case of `CCCCCCCCn1cc[n+](C)c1.O=S(=O)([N-]S(=O)(=O)C(F)(F)F)C(F)(F)F` + c1ccccc1, the viscosity (293 K, 101 kPa, x1 = 0.1) is reported as 3.21 mPa·s, the viscosity (293 K, 101 kPa, x1 = 0.4) is reported as 23.5 mPa·s and the viscosity (293 K, 101 kPa, x1 = 0.8) is reported as 74.4 mPa·s. The viscosity (293 K, 101 kPa, x1 = 1) was 113 mPa·s.

`CC[N+](CC)(CC)CC.[Cl-]` + Oc1ccccc1 showed a viscosity (303.15 K, 101 kPa, x1 = 0.333) of 72.1 mPa·s, a viscosity (313.15 K, 101 kPa, x1 = 0.2) of 21.28 mPa·s and a viscosity (313.15 K, 101 kPa, x1 = 0.25) of 24.68 mPa·s. The viscosity (313.15 K, 101 kPa, x1 = 0.333) was 43 mPa·s, the viscosity (323.15 K, 101 kPa, x1 = 0.25) was 16.86 mPa·s and the viscosity (323.15 K, 101 kPa, x1 = 0.333) was 27.8 mPa·s.

Work on `CC[NH3+].O=[N+]([O-])[O-]` + CO yielded a viscosity (293.15 K, 101 kPa, x2 = 0) of 44.9 mPa·s and a viscosity (293.15 K, 101 kPa, x2 = 0.4) of 13.8 mPa·s.

With `CC[n+]1ccn(C)c1.CS(=O)(=O)[O-]` + O the viscosity (283.15 K, 102.2 kPa, x1 = 0.75) was 88.7 mPa·s, the viscosity (288.15 K, 102.2 kPa, x1 = 0.75) was 69 mPa·s and the viscosity (293.15 K, 102.2 kPa, x1 = 0.75) was 53.3 mPa·s. It also gave a viscosity (308.15 K, 102.2 kPa, x1 = 0.75) of 28.4 mPa·s, a viscosity (318.15 K, 102.2 kPa, x1 = 0.75) of 20.6 mPa·s and a viscosity (323.15 K, 102.2 kPa, x1 = 0.75) of 17.9 mPa·s. For the same compound, the viscosity (333.15 K, 102.2 kPa, x1 = 0.75) was 14 mPa·s.

In the case of `CCCC[n+]1ccn(C)c1.F[B-](F)(F)F` + CO, the electrical conductivity (298.1 K, 101 kPa, x1 = 0.0155) is reported as 0.884 S/m and the electrical conductivity (298.1 K, 101 kPa, x1 = 0.0244) is reported as 1.16 S/m.

In the case of `CCCCCCCC[n+]1ccn(C)c1.O=S(=O)([N-]S(=O)(=O)C(F)(F)C(F)(F)F)C(F)(F)C(F)(F)F` + O, the viscosity (293.15 K, 101 kPa, x2 = 0.148) is reported as 167 mPa·s and the electrical conductivity (295.15 K, 101 kPa, x2 = 0.148) is reported as 0.13 S/m.

In the case of `CCn1cc[nH+]c1.O=S(=O)([N-]S(=O)(=O)C(F)(F)F)C(F)(F)F` + O, the viscosity (297.55 K, 101 kPa, x1 = 0.359) is reported as 11.2 mPa·s, the viscosity (297.55 K, 101 kPa, x1 = 0.667) is reported as 24.1 mPa·s and the viscosity (297.55 K, 101 kPa, x1 = 0.8) is reported as 32.7 mPa·s. The viscosity (297.55 K, 101 kPa, x1 = 0.941) was 50.8 mPa·s and the viscosity (297.55 K, 101 kPa, x1 = 1) was 57.1 mPa·s.

With `CCCC[n+]1ccn(C)c1.F[B-](F)(F)F` + O the electrical conductivity (288.15 K, 100 kPa, x1 = 0.0001) was 0.0392 S/m, the electrical conductivity (298.15 K, 100 kPa, x1 = 0.0001) was 0.0505 S/m and 0.036 S/m and the electrical conductivity (318.15 K, 100 kPa, x1 = 0.0001) was 0.0942 S/m and 0.0522 S/m.

Work on `O=c1cc[nH]cc1` + CCCC[n+]1ccn(C)c1.[Cl-] yielded a viscosity (293.15 K, 100 kPa, x1 = 0.333) of 302 mPa·s and a viscosity (293.15 K, 100 kPa, x1 = 0.5) of 261 mPa·s.

For `C[N+](C)(C)CCO.O=C([O-])[C@@H]1CCCN1` + O, the viscosity (308.15 K, 100 kPa, x1 = 0.0043) was 0.91 mPa·s, the viscosity (308.15 K, 100 kPa, x1 = 0.0342) was 2.01 mPa·s and the viscosity (323.15 K, 100 kPa, x1 = 0.0202) was 1.11 mPa·s. For the same compound, the viscosity (323.15 K, 100 kPa, x1 = 0.0342) was 1.52 mPa·s, the viscosity (338.15 K, 100 kPa, x1 = 0.0202) was 1 mPa·s and the viscosity (353.15 K, 100 kPa, x1 = 0.0202) was 0.88 mPa·s. The viscosity (353.15 K, 100 kPa, x1 = 0.0342) was 0.98 mPa·s.

With `[Cl][Al]([Cl])[Cl]` + CC[n+]1ccn(C)c1.[Cl-] the speed of sound (298.15 K, 100 kPa, x2 = 0.38) was 1411 m/s, the speed of sound (303.15 K, 100 kPa, x2 = 0.38) was 1404.5 m/s and the electrical conductivity (303.15 K, 101 kPa, x1 = 0.5) was 2.49 S/m. It also gave an electrical conductivity (303.15 K, 101 kPa, x1 = 0.57) of 2.12 S/m, an electrical conductivity (303.15 K, 101 kPa, x1 = 0.6) of 1.91 S/m and an electrical conductivity (303.15 K, 101 kPa, x1 = 0.67) of 1.63 S/m. The electrical conductivity (306.15 K, 101 kPa, x2 = 0.5) was 2.66 S/m, the electrical conductivity (306.15 K, 101 kPa, x2 = 0.588) was 0.982 S/m and the electrical conductivity (306.15 K, 101 kPa, x2 = 0.625) was 0.663 S/m. It also gave a speed of sound (313.15 K, 100 kPa, x2 = 0.38) of 1391.8 m/s and a speed of sound (318.15 K, 100 kPa, x2 = 0.38) of 1385.6 m/s.

For `C[N+](C)(C)CCCl.[Cl-]` + OCC(O)CO, the viscosity (318.15 K, 100 kPa, x1 = 0.333) was 161 mPa·s.

Work on `CCCCCCCCn1cc[n+](C)c1.[Cl-]` + O yielded a speed of sound (298.15 K, 101 kPa, x2 = 0) of 1721 m/s, a speed of sound (298.15 K, 101 kPa, x2 = 0.1484) of 1666.7 m/s and a speed of sound (298.15 K, 101 kPa, x2 = 0.203) of 1655.1 m/s. It also gave a speed of sound (298.15 K, 101 kPa, x2 = 0.5334) of 1632.2 m/s, a speed of sound (298.15 K, 101 kPa, x2 = 0.6807) of 1639.3 m/s and a speed of sound (298.15 K, 101 kPa, x2 = 0.8185) of 1650.7 m/s. For the same compound, the speed of sound (298.15 K, 101 kPa, x2 = 0.9307) was 1639.6 m/s and the speed of sound (298.15 K, 101 kPa, x2 = 0.9635) was 1611.3 m/s.

Compound `CCCC[P+](CCCC)(CCCC)CCCC.[Br-]` + OCCO has a viscosity (298.15 K, 101.3 kPa, x1 = 0.333) of 93.4 mPa·s, a viscosity (303.15 K, 101.3 kPa, x1 = 0.333) of 72.4 mPa·s and a viscosity (308.15 K, 101.3 kPa, x1 = 0.333) of 56.9 mPa·s. For the same compound, the viscosity (313.15 K, 101.3 kPa, x1 = 0.333) was 45.3 mPa·s and the viscosity (318.15 K, 101.3 kPa, x1 = 0.333) was 36.6 mPa·s.

Work on `CC[N+]1(C)CCCC1.[Br-]` + OCC(O)CO yielded a speed of sound (313.15 K, 100 kPa, x1 = 0.3333) of 1870.1 m/s.

In the case of `CCCC[n+]1ccn(C)c1.O=S(=O)([N-]S(=O)(=O)C(F)(F)F)C(F)(F)F` + CO, the viscosity (298 K, 100 kPa, x1 = 0.1) is reported as 1.693 mPa·s, the viscosity (298 K, 100 kPa, x1 = 0.3834) is reported as 8.225 mPa·s and the viscosity (298 K, 100 kPa, x1 = 0.4974) is reported as 12.54 mPa·s. It also gave a viscosity (298 K, 100 kPa, x1 = 0.5875) of 16.78 mPa·s, a viscosity (298 K, 100 kPa, x1 = 0.7988) of 30.69 mPa·s and a viscosity (298 K, 100 kPa, x1 = 0.8995) of 38.93 mPa·s.

`CC[N+](CC)(CC)CC.[Cl-]` + O showed an electrical conductivity (323 K, 100 kPa, x1 = 0.2) of 4.1 S/m.

`CC(CC(C)(C)C)CP(=O)([O-])CC(C)CC(C)(C)C.CCCCCCCCCCCCCC[P+](CCCCCC)(CCCCCC)CCCCCC` + O showed a viscosity (298.15 K, 100 kPa, x1 = 0.0942) of 133 mPa·s, a viscosity (298.15 K, 100 kPa, x1 = 0.1083) of 128 mPa·s and a viscosity (303.15 K, 100 kPa, x2 = 0.8862) of 119.5 mPa·s.

`CC[n+]1ccn(C)c1.[Cl-]` + CC#N gave a viscosity (373 K, 100 kPa, x2 = 0) of 36 mPa·s, a viscosity (373 K, 100 kPa, x2 = 0.158) of 19 mPa·s and a viscosity (373 K, 100 kPa, x2 = 0.472) of 7 mPa·s. For the same compound, the viscosity (373 K, 100 kPa, x2 = 0.781) was 3 mPa·s.

With `c1ccccc1` + CCCCCCCCn1cc[n+](C)c1.O=S(=O)([N-]S(=O)(=O)C(F)(F)F)C(F)(F)F the viscosity (293 K, 101 kPa, x2 = 0) was 0.641 mPa·s.

For `CCCC[n+]1ccn(C)c1.O=S(=O)([N-]S(=O)(=O)C(F)(F)F)C(F)(F)F` + O, the viscosity (298 K, 101 kPa, x2 = 0.0716) was 27 mPa·s.

`CC[n+]1ccn(C)c1.O=S(=O)([N-]S(=O)(=O)C(F)(F)F)C(F)(F)F` + O showed a viscosity (297.55 K, 101 kPa, x1 = 0.722) of 18.2 mPa·s, a viscosity (297.55 K, 101 kPa, x1 = 0.8) of 21.9 mPa·s and a viscosity (297.55 K, 101 kPa, x1 = 0.941) of 28.9 mPa·s. It also gave a viscosity (297.55 K, 101 kPa, x1 = 1) of 36.3 mPa·s.

Compound `CC(C)C[P+](C)(CC(C)C)CC(C)C.Cc1ccc(S(=O)(=O)[O-])cc1` + O has a viscosity (293.15 K, 101 kPa, x1 = 0.0066) of 1.65 mPa·s, a viscosity (293.15 K, 101 kPa, x1 = 0.0152) of 2.6 mPa·s and a viscosity (293.15 K, 101 kPa, x2 = 0) of 1320 mPa·s. The viscosity (293.15 K, 101 kPa, x2 = 0.9557) was 6.9 mPa·s.
